Drawing on patent US8822468B2 (Novartis AG, priority 2008, dated 2014), this text covers IC50 for 29 compounds.

pIC50: −log10 of the molar value.

T1 sequence (P08581 969-1390): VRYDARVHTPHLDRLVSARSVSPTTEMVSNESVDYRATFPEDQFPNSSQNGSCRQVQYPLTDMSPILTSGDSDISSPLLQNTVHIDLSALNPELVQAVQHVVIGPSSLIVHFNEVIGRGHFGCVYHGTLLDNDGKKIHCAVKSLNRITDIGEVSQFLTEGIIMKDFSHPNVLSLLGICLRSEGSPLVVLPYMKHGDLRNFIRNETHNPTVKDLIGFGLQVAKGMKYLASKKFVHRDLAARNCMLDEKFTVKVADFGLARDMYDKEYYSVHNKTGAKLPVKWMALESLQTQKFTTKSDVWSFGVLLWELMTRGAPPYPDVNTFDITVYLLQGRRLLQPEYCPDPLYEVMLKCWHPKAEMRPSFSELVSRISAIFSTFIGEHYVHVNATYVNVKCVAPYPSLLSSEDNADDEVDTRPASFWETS

The test addresses T1, cMET receptor tyrosine kinase (GST-cMET (969-1390)) (Homo sapiens, UniProt P08581).
T1 construct: made in house
Nature of the test: EPK cMET profiling assay (LanthaScreen TR-FRET antibody based kinase phosphorylation assay). The settings on record: purified recombinant GST-cMET (969-1390), 2 μM ATP, 50 nM Fluorescein-PolyEAY, 60 minutes at room temperature; read-out: c-Met IC50. Type of test: biochemical. Here is the method:
A number of compounds of the present invention were assayed in an antibody based kinase phosphorylation assay as follows.
EPK cMET Profiling Assay:
The EPK kinase assay for cMET receptor tyrosine kinase was developed, using the purified recombinant GST-fusion protein, containing the cytoplasmic domain of the enzyme. GST-cMET (969-1390) was purified by affinity chromatography.
The kinase assay is based on the LanthaScreen™ technology. LanthaScreen™ is the detection of Time-Resolved Fluorescence Resonance Energy Transfer (TR-FRET) using lanthanide chelates to measure interactions between various binding partners. In a TR-FRET kinase assay, a long-lifetime lanthanide donor species is conjugated to an antibody that specifically binds to a phosphorylated product of a kinase reaction that is labeled with a suitable acceptor fluorophore. This antibody-mediated interaction brings the lanthanide donor and the acceptor into proximity such that resonance energy transfer can take place, resulting in a detectible increase in the FRET signal.
The kinase reactions were performed in 384 well microtiter plates in a total reaction volume of 9.05 μL. The assay plates were prepared with 0.05 μL per well of test compound in the appropriate test concentration, as described under “preparation of compound dilutions”. The reactions were started by combining 4.5 μL of ATP solution with 4.5 μL of enzyme-substrate mix (consisting of kinase and substrate). The final concentrations in the kinase reactions were 35 mM Tris/HCl, 1 mM DTT, 0.025% Tween20, 10 μM sodium orthovanadate, 0.25% BSA, 0.6% DMSO, 10 mM MgCl2, 3 mM MnCl2, 2 μM ATP, 50 nM Fluorescein-PolyEAY, and 0.3 nM enzyme.
The reactions were incubated for 60 minutes at room temperature and stopped by adding 4.5 μL of stop buffer (50 mM EDTA, 0.04% NP40, 20 mM Tris/HCl).
Subsequently 4.5 μL of detection mix (50 mM Tris/HCl, 2 mM DTT, 0.05% Tween20, 20 μM sodium orthovanadate, 1% BSA, 1.72 μg/ml Tb-PY20 antibody) were added to the stopped reactions. After 30 minutes incubation at room temperature, the plates were measured in a BMG Pherastar fluorescence reader. The effect of compound on the enzymatic activity was in all assays obtained from the linear progress curves and determined from one reading (end point measurement).
Test compounds were dissolved in DMSO (10 mM) and transferred into 1.4 mL flat bottom or V-shaped Matrix tubes carrying a unique 2D matrix. The stock solutions were stored at −20° C. if not used immediately. For the test procedure the vials were defrosted and identified by a scanner whereby a working sheet was generated that guided the subsequent working steps.
Compound dilutions were made in 96 well plates. This format enabled the assay of maximally 40 individual test compounds at 8 concentrations (single points) including 4 reference compounds. The dilution protocol included the production of “pre-dilution plates”, “master plates” and “assay plates”.
Pre-dilution plates: 96 polypropylene well plates were used as pre-dilution plates. A total of 4 pre-dilution plates were prepared including 10 test compounds each on the plate positions A1-A10, one standard compound at A11 and one DMSO control at A12. All dilution steps were done on a HamiltonSTAR robot.
Master plates: 100 μL of individual compound dilutions including standard compound and controls of the 4 “pre-dilution plates” were transferred into a 384 “master plate” including the following concentrations 1,820, […], 182, 54.6, 18.2, 5.46, 1.82 and 0.546 μM, respectively in 90% of DMSO.
Assay plates: Identical “assay plates” were then prepared by pipetting 50 nL each of compound dilutions of the “master plates” into 384-well “assay plates” by means of a HummingBird 384-channel dispenser. These plates were used directly for the assay which was performed in a total volume of 9.05 μL. This led to a final compound concentration of 10, 3.0, 1.0, 0.3, 0.1, 0.03, 0.01 and 0.003 μM and a final DMSO concentration of 0.5% in the assay.
Background: Time-resolved FRET reads energy transfer from a long-lived donor to a nearby acceptor.
In general, pIC50 refers to the negative decadic logarithm of the IC50, by convention in mol/L. As to `CC(=O)c1ccc(-c2ccc3ncc(Cc4ccc5ncccc5c4)n3n2)cc1` [Example 21, 1-[4-(3-Quinolin-6-ylmethyl-imidazo[1,2-b]pyridazin-6-yl)-phenyl]-ethanone], the pIC50 was 7.56.
`CN(C)[C@@H]1CCN(c2ccc3ncc(Cc4ccc5ncccc5c4)n3n2)C1` [Example 88, Dimethyl-[(R)-1-(3-quinolin-6-ylmethyl-imidazo[1,2-b]pyridazin-6-yl)-pyrrolidin-3-yl]-amine]: the pIC50 was 7.92.
In the case of `FC(F)(c1ccc2ncccc2c1)c1cnc2ccc(-c3cnn(C4CCNCC4)c3)nn12` [Example 197, 6-{Difluoro-[6-(1-piperidin-4-yl-1H-pyrazol-4-yl)-imidazo[1,2-b]pyridazin-3-yl]-methyl}-quinoline] it was 7.21; in that of `FC(F)(F)Oc1ccc(-c2ccc3ncc(Cc4ccc5ncccc5c4)n3n2)cc1` [Example 43, 6-[6-(4-Trifluoromethoxy-phenyl)-imidazo[1,2-b]pyridazin-3-ylmethyl]-quinoline], 6.46; in that of `CC(c1cc2cccnc2cc1F)c1cnc2ccc(-c3cnn(CCO)c3)nn12` (racemic) [Example 255], 7.44.
Regarding `Cn1cc(-c2ccc3ncc(Cc4ccc(O)cc4F)n3n2)cn1` [Example 202, 3-Fluoro-4-[6-(1-methyl-1H-pyrazol-4-yl)-imidazo[1,2-b]pyridazin-3-ylmethyl]-phenol], the pIC50 is 7.17.
For `Cn1cc(-c2ccc3ncc(C(O)c4ccc5ncccc5c4)n3n2)cn1` (racemic) [Example 1, (rac)-[6-(1-Methyl-1H-pyrazol-4-yl)-imidazo[1,2-b]pyridazin-3-yl]-quinolin-6-yl-methanol], the pIC50 was 6.85.
For the compound `c1cnc2ccc(Cc3cnc4ccc(-c5cncc6ccccc56)nn34)cc2c1` [Example 42, 6-(6-Isoquinolin-4-yl-imidazo[1,2-b]pyridazin-3-ylmethyl)-quinoline], the pIC50 is 6.35.
As to `Cn1cc(-c2ccc3ncc(C4(c5ccc6ncccc6c5)CC4)n3n2)cn1` [Example 163, 6-{1-[6-(1-Methyl-1H-pyrazol-4-yl)-imidazo[1,2-b]pyridazin-3-yl]-cyclopropyl}-quinoline], the pIC50 is 6.96.
Consider `c1ccc(CN2CCC(Nc3ccc4ncc(Cc5ccc6ncccc6c5)n4n3)C2)cc1` (centres unmarked) [Example 117, (1-Benzyl-pyrrolidin-3-yl)-(3-quinolin-6-ylmethyl-imidazo[1,2-b]pyridazin-6-yl)-amine], for which the pIC50 was 6.20.
On to `Cn1cc(-c2ccc3ncc(C(O)c4ccc5nccnc5c4)n3n2)cn1` (racemic) [Example 11, (rac)-[6-(1-Methyl-1H-pyrazol-4-yl)-imidazo[1,2-b]pyridazin-3-yl]-quinoxalin-6-yl-methanol], for which the pIC50 was 6.04.
Consider `Cn1cc(-c2ccc3ncc(Cc4ccc5ncc(-c6cccc(C#N)c6)n5c4)n3n2)cn1` [Example 305, 3-{6-[6-(1-Methyl-1H-pyrazol-4-yl)-imidazo[1,2-b]pyridazin-3-ylmethyl]-imidazo[1,2-a]pyridin-3-yl}-benzonitrile], for which the pIC50 is 6.59.
In the case of `CN(C(=O)OC(C)(C)C)C1CCN(c2ccc3ncc(Cc4ccc5ncccc5c4)n3n2)C1` (racemic) [Example 87, Methyl-[1-(3-quinolin-6-ylmethyl-imidazo[1,2-b]pyridazin-6-yl)-pyrrolidin-3-yl]-carbamic acid tert-butyl ester] it was 6.43; in that of `Cn1cc(-c2ccc3ncc(Cc4ccc5ncccc5c4Cl)n3n2)cn1` [Example 172, 5-Chloro-6-[6-(1-methyl-1H-pyrazol-4-yl)-imidazo[1,2-b]pyridazin-3-ylmethyl]-quinoline], 8.00; in that of `c1cnc2ccc(Cc3cnc4ccc(Nc5ccc(CN6CCCCC6)cc5)nn34)cc2c1` [Example 126, (4-Piperidin-1-ylmethyl-phenyl)-(3-quinolin-6-ylmethyl-imidazo[1,2-b]pyridazin-6-yl)-amine], 7.80.
For `Cn1cc(-c2ccc3ncc(Cc4ccc5ncn(C)c5c4)n3n2)cn1` [Example 200, 3-(3-Methyl-3H-benzoimidazol-5-ylmethyl)-6-(1-methyl-1H-pyrazol-4-yl)-imidazo[1,2-b]pyridazine], the pIC50 was 7.64.
In the case of `CN(C)CCCNc1ccc2ncc(Cc3ccc4ncccc4c3)n2n1` [Example 101, N,N-Dimethyl-N′-(3-quinolin-6-ylmethyl-imidazo[1,2-b]pyridazin-6-yl)-propane-1,3-diamine] it was 6.89; in that of `c1cn2cc(Cc3cnc4ccc(-c5cn[nH]c5)nn34)ccc2n1` [Example 290, 3-Imidazo[1,2-a]pyridin-6-ylmethyl-6-(1H-pyrazol-4-yl)-imidazo[1,2-b]pyridazine], 6.92; in that of `Cc1ccc(-c2ccc3ncc(Cc4ccc5ncccc5c4)n3n2)cc1` [Example 16, 6-(6-p-Tolyl-imidazo[1,2-b]pyridazin-3-ylmethyl)-quinoline], 7.02.
For `CC(C)CNc1ccc2ncc(C(O)c3ccc4ncccc4c3)n2n1` (racemic) [Example 77, (rac)-(6-Isobutylamino-imidazo[1,2-b]pyridazin-3-yl)-quinolin-6-yl-methanol], the pIC50 is 6.65.
For the compound `Cn1cc(-c2ccc3ncc(Cc4ccc5occc5c4)n3n2)cn1` [Example 8, 3-Benzofuran-5-ylmethyl-6-(1-methyl-1H-pyrazol-4-yl)-imidazo[1,2-b]pyridazine], the pIC50 was 6.57.
Take `Cn1cc(-c2ccc3ncc(C(O)c4cc5cccnc5cc4F)n3n2)cn1` (racemic) [Example 248, (rac)-7-Fluoro-quinolin-6-yl)-[6-(1-methyl-1H-pyrazol-4-yl)-imidazo[1,2-b]pyridazin-3-yl]-methanol]: the pIC50 is 6.43.
Consider `CC(c1cc2cn[nH]c2cc1F)c1cnc2ccc(-c3cnn(C)c3)nn12` (racemic) [Example 164, (rac)-3-[1-(6-Fluoro-1H-indazol-5-yl)-ethyl]-6-(1-methyl-1H-pyrazol-4-yl)-imidazo[1,2-b]pyridazine], for which the pIC50 was 7.27.
With `C[C@H](c1ccc2nccn2c1)c1cnc2ccc(-c3cnn(C)c3)nn12` [Example 294, 3-((R)-1-Imidazo[1,2-a]pyridin-6-yl-ethyl)-6-(1-methyl-1H-pyrazol-4-yl)-imidazo[1,2-b]pyridazine], the pIC50 is 6.09.
On to `OCCn1cc(-c2ccc3ncc(Cc4ccc5ncccc5c4Cl)n3n2)cn1` [Example 226, 2-{4-[3-(5-Chloro-quinolin-6-ylmethyl)-imidazo[1,2-b]pyridazin-6-yl]-pyrazol-1-yl}-ethanol], for which the pIC50 was 7.60.
In the case of `Clc1cccc(Oc2ccc3ncc(Cc4ccc5ncccc5c4)n3n2)c1` [Example 113, 6-[6-(3-Chloro-phenoxy)-imidazo[1,2-b]pyridazin-3-ylmethyl]-quinoline] it was 7.08.
In the case of `CCC(CC)Nc1ccc2ncc(Cc3ccc4ncccc4c3)n2n1` [Example 90, (1-Ethyl-propyl)-(3-quinolin-6-ylmethyl-imidazo[1,2-b]pyridazin-6-yl)-amine], the pIC50 is 7.13.
With `Clc1cc(-c2cc(-c3ccc4ncc(Cc5ccc6ncccc6c5)n4n3)ccn2)ccn1` [Example 50, 2′-Chloro-4-(3-quinolin-6-ylmethyl-imidazo[1,2-b]pyridazin-6-yl)-[2,4′]bipyridinyl], the pIC50 is 6.02.
For `CNC(=O)c1cccc(-c2ccc3ncc(Cc4ccc5ncccc5c4)n3n2)c1` [Example 58, N-Methyl-3-(3-quinolin-6-ylmethyl-imidazo[1,2-b]pyridazin-6-yl)-benzamide], the pIC50 is 6.60.
